For assay [1], the system named is hyperuricemic mice (高尿酸血症小鼠). The experiment in a line: 实验例2: effect of TAZ-3-16 on lowering blood uric acid in hyperuricemic (HUA) model mice (hypoxanthine plus potassium oxonate, repeated stimulation). It counts as in vivo. Conditions: HUA model ICR mice, intragastric, n=10, compared with model control.
The subject of assay [2] is acute hyperuricemic mice (急性高尿酸血症小鼠). The experiment in a line: 实验例3: effect of TAZ-3-19 on lowering blood uric acid in acute hyperuricemia model mice (hypoxanthine plus potassium oxonate). The assay is classed as in vivo. The note with it: acute hyperuricemia ICR mice, intragastric, n=10, compared with model control.

The structures appear in SMILES notation.

The record followed here is patent publication CN113354616A, “二芳基-1,2,4-三唑类化合物及其制法和药物用途” (Institute of Materia Medica of CAMS and PUMC, priority 2020, dated 2021).

For the molecule `Clc1cc(-c2nc(-c3ccncc3)n[nH]2)cc(Cl)c1OCCCN1CCCCC1` [TAZ-3-16], in assay [1] (0.5 mg/kg once daily for 2 days), the “blood uric acid level” value is listed as “明显降低”.

As for `CN1CCN(CCCOc2c(Cl)cc(-c3nc(-c4ccncc4)n[nH]3)cc2Cl)CC1` [TAZ-3-19], the results for the “decrease of peak blood uric acid” value in assay [2] (0.625 mg/kg), in assay [2] (1.25 mg/kg) and in assay [2] (2.5 mg/kg) were 5.7%, 34.2% and 68.0%, respectively.

Regarding `Cc1nc(-c2ccc(OCC(C)C)c(C#N)c2)sc1C(=O)O` [非布索坦, reference compound], in assay [1] (1 mg/kg once daily for 2 days), the “blood uric acid level” value is “明显降低”.
